These results are taken from ChEMBL document CHEMBL4376876 (J Med Chem, 2020).

Molecules are shown by their SMILES.

The assay concerns the target Enoyl-[acyl-carrier-protein] reductase [NADH] (Mycobacterium tuberculosis, UniProt P9WGR1, S94A).
`CC[C@H](C)[C@H]1OC(=O)[C@H](C)[C@H](O)[C@H](Cc2cccnc2)NC(=O)[C@@H](NC(=O)c2ncccc2O)[C@@H](C)OC1=O` displayed a half-inhibitory concentration (IC50) of 87.2 µM.
The figure for `CC[C@H]1OC(=O)[C@H](C)[C@H](O)[C@H](Cc2cccnc2)NC(=O)[C@@H](NC(=O)c2ncccc2O)[C@@H](C)OC1=O` is 127 µM.
As for `CC(C)[C@H]1OC(=O)[C@H](C)[C@H](O)[C@H](Cc2cccnc2)NC(=O)[C@@H](NC(=O)c2ncccc2O)[C@@H](C)OC1=O`, 32.8 µM corresponded to half-maximal inhibition (IC50).
For `C[C@H]1OC(=O)[C@@H](Cc2ccccc2)OC(=O)[C@H](C)[C@H](O)[C@H](Cc2cccnc2)NC(=O)[C@H]1NC(=O)c1ncccc1O` the value was 29.1 µM; for `CC[C@@H](C)[C@H]1OC(=O)[C@H](C)[C@H](O)[C@H](Cc2cccnc2)NC(=O)[C@@H](NC(=O)c2ncccc2O)[C@@H](C)OC1=O`, 31.5 µM; for `C[C@@H]1C(=O)N[C@H](C2CCCCC2)C(=O)O[C@H](C)[C@H](NC(=O)c2ncccc2O)C(=O)N[C@@H](Cc2cccnc2)[C@@H]1O`, 291 µM.
